In patent US8946248B2, “HIV inhibiting 5-substituted pyrimidines” (priority 2004, dated 2015):

How the values were obtained:
[1] = system: Strain IIIB, wild type HIV-LAI strain; assay: Antiviral activity, cellular assay, strain IIIB; format: cell-based
Protocol: (§1) Because of the increasing emergence of drug resistant HIV strains, the present compounds were tested for their potency against clinically isolated HIV strains harboring several mutations. These mutations are associated with resistance to reverse transcriptase inhibitors and result in viruses that show various degrees of phenotypic cross-resistance to the currently commercially available drugs such as for instance AZT and delavirdine.
(§2) The antiviral activity of the compound of the present invention has been evaluated in the presence of wild type HIV and HIV mutants bearing mutations at the reverse transcriptase gene. The activity of the compounds is evaluated using a cellular assay and the residual activity is expressed in pEC50 values. The columns IIIB and A-G in the table list the pEC50 values against various strains IIIB, A-G.
Strain IIIB is wild type HIV-LAI strain

[2] = system: Strain A, mutation Y181C in HIV reverse transcriptase; assay: Antiviral activity, cellular assay, strain A; format: cell-based; conditions: for pEC50 A: HIV strain with RT mutation Y181C, cellular assay
Protocol: as §1, §2
Strain A contains mutation Y181C in HIV reverse transcriptase, […]

[3] = system: Strain B, mutation K103N in HIV reverse transcriptase; assay: Antiviral activity, cellular assay, strain B; format: cell-based; conditions: for pEC50 B: HIV strain with RT mutation K103N, cellular assay
Protocol: as §1, §2
Strain B contains mutation K103N in HIV reverse transcriptase, […]

[4] = system: Strain C, mutation L100I in HIV reverse transcriptase; assay: Antiviral activity, cellular assay, strain C; format: cell-based; conditions: for pEC50 C: HIV strain with RT mutation L100I, cellular assay
Protocol: as §1, §2
Strain C contains mutation L100I in HIV reverse transcriptase, […]

[5] = system: Strain D, mutation Y188L in HIV reverse transcriptase; assay: Antiviral activity, cellular assay, strain D; format: cell-based; conditions: for pEC50 D: HIV strain with RT mutation Y188L, cellular assay
Protocol: as §1, §2
Strain D contains mutation Y188L in HIV reverse transcriptase, […]

[6] = system: Strain E, mutations L100I and K103N in HIV reverse transcriptase; assay: Antiviral activity, cellular assay, strain E; format: cell-based; conditions: for pEC50 E: HIV strain with RT mutations L100I and K103N, cellular assay
Protocol: as §1, §2
Strain E contains mutations L100I and K103N in HIV reverse transcriptase, […]

[7] = system: Strain F, mutations K103N and Y181C in HIV reverse transcriptase; assay: microbe, parasite or virus in culture; format: cell-based; conditions: for pEC50 F: HIV strain with RT mutations K103N and Y181C, cellular assay
[8] = Antiviral activity, cellular assay, strain G; format: cell-based, HIV; conditions: Human immunodeficiency virus 1, read-out: pEC50 G (converted)
Protocol: as §1, §2

[9] = system: Strain G, mutations L100I, K103N, Y181C, V179I, Y181C, E138G, V179I, L2214F, V278V/1 and A327A/V in HIV reverse transcriptase; assay: Antiviral activity, cellular assay, strain G; format: cell-based; conditions: HIV strain with RT mutations L100I, K103N, Y181C, V179I, E138G, L2214F, V278V/1 and A327A/V; cellular assay
Protocol: as §1, §2

Cc1cc(/C=C/C#N)cc(C)c1Nc1nc(Nc2ccc(C#N)cc2)ncc1Br
melting point: > 250 °C

Cc1cc(/C=C/C#N)cc(C)c1Nc1nc(Nc2ccc(C#N)cc2)ncc1C(=O)O
melting point: > 250 °C

Cc1cc(/C=C/C#N)cc(C)c1Nc1nc(Nc2ccc(C#N)cc2)ncc1C(N)=O
melting point: > 250 °C

CC(=O)Nc1cnc(Nc2ccc(C#N)cc2)nc1Nc1c(C)cc(/C=C/C#N)cc1C
melting point: > 250 °C

N#C/C=C/c1cc(F)c(Nc2nc(Nc3ccc(C#N)cc3)ncc2Br)c(Cl)c1
melting point: 236 °C

Cc1cc(/C=C/C#N)cc(C)c1Nc1nc(Nc2ccc(C#N)cc2)ncc1[N+](=O)[O-]
melting point: > 250 °C

Cc1cc(/C=C/C#N)cc(C)c1Nc1nc(Nc2ccc(C#N)cc2)ncc1N
melting point: > 250 °C

N#C/C=C/c1cc(F)c(Nc2nc(Nc3ccc(C#N)cc3)ncc2[N+](=O)[O-])c(Cl)c1
melting point: > 250 °C

N#C/C=C/c1cc(F)c(Nc2nc(Nc3ccc(C#N)cc3)ncc2N)c(Cl)c1
melting point: > 250 °C

Cc1cc(/C=C/C#N)cc(C)c1Nc1nc(Nc2ccc(C#N)cc2)ncc1NC=O [Compound 13]
EC50 ([1]; Human immunodeficiency virus 1, IIIB): 0.398 nM | EC50 ([2]; Human immunodeficiency virus 1, read-out: pEC50 A (converted)): 2.51 nM | EC50 ([3]; Human immunodeficiency virus 1, read-out: pEC50 B (converted)): 0.631 nM | EC50 ([4]; Human immunodeficiency virus 1, read-out: pEC50 C (converted)): 0.631 nM | EC50 ([5]; Human immunodeficiency virus 1, read-out: pEC50 D (converted)): 3.16 nM | EC50 ([6]; Human immunodeficiency virus 1, read-out: pEC50 E (converted)): 6.31 nM | EC50 ([7]; Human immunodeficiency virus 1, read-out: pEC50 F (converted)): 3.98 nM | EC50 [8]: 1000 nM

Cc1cc(CCC#N)cc(C)c1Nc1nc(Nc2ccc(C#N)cc2)ncc1C(N)=O [Compound 26]
pEC50 IIIB [1]: 9.7 | pEC50 A [2]: 9 | pEC50 B [3]: 9.7 | pEC50 C [4]: 10 | pEC50 D [5]: 8.6 | pEC50 E [6]: 9.2 | pEC50 F [7]: 9.2 | pEC50 G [9]: 6.4

CC(=O)Nc1cnc(Nc2ccc(C#N)cc2)nc1Nc1c(F)cc(/C=C/C#N)cc1Cl [Compound 28]
pEC50 IIIB [1]: 8.8 | pEC50 A [2]: 7.9 | pEC50 B [3]: 8.6 | pEC50 C [4]: 8.3 | pEC50 D [5]: 7.3 | pEC50 E [6]: 7 | pEC50 F [7]: 7.3 | pEC50 G [9]: 4.7

CCON=Cc1cnc(Nc2ccc(C#N)cc2)nc1Nc1c(C)cc(/C=C/C#N)cc1C [Compound 31]
pEC50 IIIB [1]: 8.5 | pEC50 A [2]: 8.2 | pEC50 B [3]: 8.5 | pEC50 C [4]: 8.5 | pEC50 D [5]: 8.2 | pEC50 E [6]: 8.2 | pEC50 F [7]: 8.2 | pEC50 G [9]: 5.1

CON=Cc1cnc(Nc2ccc(C#N)cc2)nc1Nc1c(C)cc(/C=C/C#N)cc1C [Compound 32]
pEC50 IIIB [1]: 8.5 | pEC50 A [2]: 8.5 | pEC50 B [3]: 8.7 | pEC50 C [4]: 9.3 | pEC50 D [5]: 8.6 | pEC50 E [6]: 8.6 | pEC50 F [7]: 8.7 | pEC50 G [9]: 6
